Measurements taken from patent US20020155172A1, “Methods and compounds for decreasing cell toxicity or death” (priority 2000, published 2002).

Legend:
[1] = test system: HeLa cells transfected with a Q79-GFP construct; test: Polyglutamine-induced cell death in HeLa cells; format: cell-based
Protocol: FIG. 4A is two graphs showing the effect of Congo red, tetracyclines, and sulfated polyanions on polyglutamine-induced cell death in, each graph representing a separate experiment. HeLa cells transfected with a Q79-GFP construct were treated with 100 μM of minocycline (mino), Chrysamine G (CG), Rolitetracycline (Ro), iota carrageenan (iota), dextran 500 (dextran), or Congo red (CR), six hours after transfection. The amount of cell death was determined 48 hours after transfection by morphological criteria as previously described (Sanchez et al., supra).
In a cell expressing Q79-GFP polypeptides, polyglutamine aggregates are formed and the cell dies by apoptosis (Sanchez, supra). Cell viability was determined by morphological criteria characteristic of apoptosis, including cell blebbing, shrinking. Total cell lysates and tissue homogenates were obtained using Buffer A: 1% triton in PBS, containing 10 μg/ml DNAse and protease inhibitors; leupeptin 20 μg/ml, aprotinin 20 u/ml, and PMSF 100 mM. The proteins were separated by 12% SDS/PAGE and transferred to PVDF Immobilon membrane (Millipore, Inc). Antibodies used included rabbit polyclonal antibodies; EM48 (Li et al., Mol. Neurobiol. 20:111-124, 2000) anti-heat shock proteins 40 and 70 (Stressgen, Co.), and rat monoclonal anti-caspase-8 antibody.
These effects were determined by visual inspection of GFP-positive cells under an inverted fluorescence microscope. In addition, the occurrence of apoptosis of these transfected cell samples was confirmed by staining the cells with trypan blue, propidium iodide, or Hoescht 33342 to examine the cellular or nuclear morphology.
Compounds that disrupt other types of aggregates, for example, amyloid fibril aggregates were tested for their ability to disrupt pre-formed polyglutamine aggregates. HeLa Cells were transfected with a Q79-GFP construct. Six hours later, Iota-carrageenan, dextran, minocycline, rolitetracycline, and Chrysamine G (1 nM to 100 μM) were each incubated with the cells. Seventy-two hours post-transfection, the cells were evaluated for the occurrence of cell death, by visual inspection under an inverted fluorescence microscope.

[2] = test system: HeLa cells expressing Q79 expanded polyglutamine repeats; test: Cell death induced by TNF-α/CHX, Fas/CHX or H2O2; format: cell-based; conditions: 100 μM, one hour before the inducing agent; cell death 48 hours later
Protocol: FIG. 5F is a graph of the effects of Congo red, ZVAD, or vehicle (NT) on cell death when the cells are induced to die by receptor mediated pathways (TNF-α/cycloheximide (CHX), Fas/cycloheximide (CHX)), or necrosis (hydrogen peroxide).
HeLa cells expressing Q79 expanded polyglutamine repeats were treated with 100 μM Congo red, or 100 μM ZVAD (a positive control) for one hour prior to the addition of the apoptosis-inducing agent, and cell death was determined 48 hours later. […] Finally we tested whether Congo red can inhibit apoptosis induced by overexpression of caspase-1, -8, or -11.

[3] = test system: semi-purified Q79 oligomers from HeLa cells expressing transfected Q79-GFP; test: Disassembly of semi-purified Q79 oligomers; format: biochemical; conditions: 25 μM (FIG. 6C); fluorescence microscopy
Protocol: FIG. 6C is a set of scanned images of the disruption of pre-formed Q79-GFP oligomers by Congo red, minocycline, or rolitetracycline. Lysates from Q79-GFP expressing cells were treated with 25 μM of the indicated compound, and visualized by fluorescence microscopy.
To determine if binding to polyglutamine is sufficient to inhibit the aggregate formation, we compared the ability of minocycline, rolitetracycline, iota carrageenan, dextran, chrysamine G, and Congo red to bind to 81-repeat polyglutamine polypeptide by the chemical absorption assay described above (FIG. 6B). […] To examine the relationship of compound binding and its ability to dissolve expanded polyglutamine aggregates, we tested their effects on semi-purified Q79 oligomers from HeLa cells expressing transfected Q79-GFP, viewed using a microscope.

[4] = test system: R62 mice; test: Dyskinesia of the hindlimbs, gait and stride length (ink test); format: in vivo
Text: FIG. 10D is a set of scanned images of the effect of Congo red or PBS (vehicle) on motor coordination, as assessed by the “ink” test in HD transgenic mice three weeks after Congo red or vehicle treatment. The “ink” test was used to determine the changes in stride length and the overlap of steps characteristic of movement disorders using red and green food coloring to mark the front and back paws, respectively. Changes in stride length of individual mice from one set of paws (brackets) and the differences in the step overlapping patterns (open arrows) three weeks after vehicle or Congo red treatment were assayed.
FIG. 10E is a table of the quantification of changes in stride length in HD transgenic mice treated with either Congo red or PBS (vehicle) (#, n=5 in each cohort), assessed as described in FIG. 10D.
In addition, the ability of Congo red to inhibit the formation as well as to disrupt preformed polyglutamine oligomers allowed us to examine the role of polyglutamine aggregates in neuronal dysfunction and degeneration characteristic of polyglutamine expansion diseases. In these studies, we used the animal model of Huntington's disease (R62), which expresses the truncated form of huntingtin with 139 CAG repeats Mangiarini et al. (supra). We took advantage of our finding that in addition to inhibiting polyglutamine oligomerization, Congo red also disrupts pre-formed oligomers, thus allowing assessment of the impact of Congo red on disease progression after formation of polyglutamine aggregates and the onset of symptoms. R62 transgenic mice and CBAxC57B1/6 F1 wild type littermates were obtained from Jackson Laboratories (Bar Harbor, Me.) at the age of five weeks. […]
The initial abnormal neurological signs of R62 mice include dyskinesia of the hindlimbs when mice were suspended by the tail, and irregular gait. […] The effect of Congo red on motor performance in R62 mice was also assessed by rotarod studies. […]

[5] = ink test three weeks after treatment

Nc1c(/N=N/c2ccc(-c3ccc(/N=N/c4cc(S(=O)(=O)O)c5ccccc5c4N)cc3)cc2)cc(S(=O)(=O)O)c2ccccc12 [Congo red, diphenyldiazo-bis-alpha-napthylaminesulfonate]
cell death, as indicated by morphology ([1]; HA-tagged Q79-GFP, caspase-8 experiment): significantly inhibited ATP loss and cell death | Polyglutamine-induced Cell Death ([1]; Q79-GFP, compound added six hours after transfection, 1 nM to 100 μM (FIG. 4A: 100 μM), seventy-two hours post-transfection): + (Each + indicates approximately 20% cell death.) | cell death induced by TNF-α/CHX, Fas/CHX, or H2O2 [2]: No effect | disassembly of pre-formed poly-Q oligomers [3]: caused the disassembly of pre-formed poly-Q oligomers | dyskinesia of the hindlimbs [4]: significantly inhibited the dyskinesia of the hindlimbs | gait [4, 5]: preserved the normal gait | stride length [4, 5]: preserved the normal gait (FIG. 10D) and stride length
